The results in this text go back to paper PMC11597150, “Antibacterial Activity of AXOTL-13, a Novel Peptide Identified from the Transcriptome of the Salamander Ambystoma mexicanum” (Pharmaceutics, 2024).

Assay [1] relates to Escherichia coli ATCC 25922. It is filed as cell-based. The conditions noted are these: for inhibitory effect on bacterial growth: microdilution in TSB, 8.7-70 μM, 20 h at 37 °C, absorbance 600 nm. On the procedure: (§1) To establish the minimum inhibitory concentration (MIC), the microdilution-in-broth protocol for AMPs proposed by Wiegand et al. (2008) was performed. Bacterial strains Escherichia coli ATCC 25922 and Staphylococcus aureus ATCC 25923 were cultured in tryptic soy agar (TSA). For the assay, 5 bacterial colonies were taken, dissolved in tryptic soy broth (TSB), and incubated at 37 °C until reaching 0.5 on the McFarland scale (1 × 10^8 CFU/mL). Subsequently, a dilution was made to achieve a final concentration of 5 × 10^5 CFU/mL. A 96-well plate was used for the assay in which each bacterial strain was exposed to different concentrations of the peptides to be evaluated: 70 μM, 35 μM, 17.5 μM, and 8.7 μM. Different controls were employed: TSB medium served as the sterility control and blank; bacteria without treatment were utilized as the negative control; and bacteria exposed to the Ramosin peptide at 40 μM [31] and sodium hypochlorite at 0.06% were employed as positive controls. Each treatment was performed in triplicate, and each assay was carried out on two different days. The plate was incubated for 20 h at 37 °C in a Multiskan Sky (Thermo Fisher, Waltham, MA, USA), reading the absorbance at a wavelength of 600 nm every hour.
(§2) The results were read in two ways: an endpoint analysis in which the absorbances of the wells were read at 20 h of treatment, to determine the inhibitory effect of the peptide, and a bacterial growth kinetics analysis in which the behavior of the peptide throughout the assay was observed, identifying a bactericidal or bacteriostatic action.

The test system of assay [2] is Staphylococcus aureus ATCC 25923. The experiment in a line: Broth microdilution MIC / growth inhibition. As to conditions: microdilution in TSB, 8.7-70 μM, 20 h at 37 °C, absorbance 600 nm. It is filed as cell-based. On the procedure: as §1, §2
For orientation: Broth dilution looks for growth in wells or tubes with falling amounts of substance.

≈ marks a conversion by molar mass, not a printed value. Where a SMILES comes first, the peptide text is derived from it.

Take `CC[C@H](C)[C@H](NC(=O)[C@H](CO)NC(=O)[C@H](Cc1ccccc1)NC(=O)CN)C(=O)N[C@@H](CO)C(=O)N[C@@H](CC(C)C)C(=O)N[C@@H](CCCCN)C(=O)N[C@@H](CCCNC(=N)N)C(=O)N[C@@H](CC(C)C)C(=O)N[C@@H](CCC(N)=O)C(=O)N[C@@H](CCCCN)C(=O)N[C@@H](CCSC)C(=O)N[C@@H](CC(C)C)C(=O)O` [AXOTL-13] (H-GFSISLKRLQKML-OH): the “minimum inhibitory concentration (MIC)” value in assay [1] (ATCC 25922, 20 h) amounted to 35 µM (≈ 53.2 µg/mL).
In the case of “Peptide 4766: 13-residue peptide LIGGQLGGLIKAL predicted from the Ambystoma mexicanum transcriptome, chemically synthesized”, the “inhibitory effect on bacterial growth” value in assay [1] and in assay [2] was “did not exert a complete inhibitory effect” in each case.
As to “Peptide 4767: 13-residue peptide YITGLIAPILKSL predicted from the Ambystoma mexicanum transcriptome, chemically synthesized”, the “inhibitory effect on bacterial growth” value in assay [1] and in assay [2] was “did not exert a complete inhibitory effect” each time.
Regarding “Peptide 4768: 12-residue peptide VLGSILGALKAI predicted from the Ambystoma mexicanum transcriptome, chemically synthesized”, the “inhibitory effect on bacterial growth” value in assay [1] and in assay [2] was “did not exert a complete inhibitory effect” each time.
“Peptide 4769: 13-residue peptide LHPLIGRVIGGVI predicted from the Ambystoma mexicanum transcriptome, chemically synthesized”: the “inhibitory effect on bacterial growth” value in assay [1] and in assay [2] was “did not exert a complete inhibitory effect” each time.
With “Peptide 4771: 13-residue peptide LLDTIGKIFGSLL predicted from the Ambystoma mexicanum transcriptome, chemically synthesized”, the “inhibitory effect on bacterial growth” value in assay [1] and in assay [2] was “did not exert a complete inhibitory effect” throughout.
